Usually MIC stands for the lowest concentration that inhibits growth of the organism.

The subject of this assay is Eschericia coli (E. coli) strain ATCC25922. Kind of assay: Standard microdilution assay, MIC against E. coli ATCC25922. It counts as cell-based. The conditions noted are these: Escherichia coli; E. coli strain ATCC25922, standard microdilution assay; cutoff 16 micrograms/mL; read-out: MIC E. Coli. In a few lines:
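Scoring as + or − used a 16 micrograms/mL cutoff on minimum inhibitory concentrations. These came from CLSI-standard microdilution, quality-controlled with reference strains tested in the same run.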
As to `C=C[C@H](CCNCc1ccc(-n2cc3cc(-c4cc(CCC[C@H](C)N)cc(Cl)c4F)[nH]c3nc2=O)cc1)NC(=N)N` [Compound 180], the MIC was less than 16 µg/mL.
The value for `C[C@H](N)CCCc1cc(Cl)c(F)c(-c2cc3cn(-c4ccc(CNCC[C@H](CO)NC(=N)N)cc4)c(=O)nc3[nH]2)c1` [Compound 181] was less than 16 µg/mL; that for `C[C@H](N)CCCc1cc(Cl)c(F)c(-c2cc3cn(-c4ccc(CNCC[C@@H](N)CN)cc4)c(=O)nc3[nH]2)c1` [Compound 182] was less than 16 µg/mL; that for `CC[C@@H](CCNCc1ccc(-n2cc3cc(-c4cc(CCC[C@H](C)N)cc(Cl)c4F)[nH]c3nc2=O)cc1)NC(=N)N` [Compound 183] was less than 16 µg/mL.
The value for `C[C@H](N)CCCc1cc(Cl)c(F)c(-c2cc3cn(-c4ccc(CNCC[C@@H](N)CCO)cc4)c(=O)nc3[nH]2)c1` [Compound 184] was less than 16 µg/mL; that for `C[C@H](N)CCCc1cc(Cl)c(F)c(-c2cc3cn(-c4ccc(CNCC[C@H](CCO)NC(=N)N)cc4)c(=O)nc3[nH]2)c1` [Compound 185] was less than 16 µg/mL; that for `CC(CCNCc1ccc(-n2cc3cc(-c4cc(CCC[C@H](C)N)cc(Cl)c4F)[nH]c3nc2=O)cc1)NC(=N)N` (stereo partly drawn) [Compound 186] was less than 16 µg/mL.
With `C[C@H](N)CCCc1cc(Cl)c(F)c(-c2cc3cn(-c4ccc(CNCC[C@@H](C)N)cc4)c(=O)nc3[nH]2)c1` [Compound 187], the MIC is less than 16 µg/mL.
The value for `C[C@H](N)CCCc1cc(Cl)c(F)c(-c2cc3cn(-c4ccc(CNCC[C@@H](C)NC(=N)N)cc4)c(=O)nc3[nH]2)c1` [Compound 188] was less than 16 µg/mL.
The value for `C[C@H](N)CCCc1cc(Cl)c(F)c(-c2cc3cn(-c4ccc(CNCCC5(N)CNC5)cc4)c(=O)nc3[nH]2)c1` [Compound 189] was less than 16 µg/mL; that for `C[C@H](N)CCCc1cc(Cl)c(F)c(-c2cc3cn(-c4ccc(CNCCC5(N)CN(C(=N)N)C5)cc4)c(=O)nc3[nH]2)c1` [Compound 190] was less than 16 µg/mL; that for `C[C@H](N)CCCc1cc(Cl)c(F)c(-c2cc3cn(-c4ccc(CNCC[C@@H](CO)NC(=N)N)cc4)c(=O)nc3[nH]2)c1` [Compound 191] was less than 16 µg/mL.
In the case of `C[C@H](N)CCCc1cc(Cl)c(F)c(-c2cc3cn(-c4ccc(CNCC[C@H](N)CO)cc4)c(=O)nc3[nH]2)c1` [Compound 192], the MIC is less than 16 µg/mL.
For `C[C@H](N)CCCc1cc(Cl)c(F)c(-c2cc3cn(-c4ccc([C@H](C)NCC[C@@H](C)N)cc4)c(=O)nc3[nH]2)c1` [Compound 193] the value was less than 16 µg/mL; for `C[C@H](N)CCCc1cc(Cl)c(F)c(-c2cc3cn(-c4ccc([C@H](C)NCC[C@@H](C)NC(=N)N)cc4)c(=O)nc3[nH]2)c1` [Compound 194], less than 16 µg/mL; for `C[C@H](N)CCCc1cc(Cl)c(F)c(-c2cc3cn(-c4ccc(CN[C@@H](C)CCNC(=N)N)cc4)c(=O)nc3[nH]2)c1` [Compound 195], less than 16 µg/mL.
With `C[C@H](N)CCCc1cc(Cl)c(F)c(-c2cc3cn(-c4ccc(CN[C@@H](C)CCN)cc4)c(=O)nc3[nH]2)c1` [Compound 196], the MIC is less than 16 µg/mL.
For `CC[C@@H](N)CCNCc1ccc(-n2cc3cc(-c4cc(CCC[C@H](C)N)cc(Cl)c4F)[nH]c3nc2=O)cc1` [Compound 197] the value was less than 16 µg/mL; for `CC[C@H](CCNCc1ccc(-n2cc3cc(-c4cc(CCC[C@H](C)N)cc(Cl)c4F)[nH]c3nc2=O)cc1)NC(=N)N` [Compound 198], less than 16 µg/mL; for `C[C@H](N)CCCc1cc(-c2cc3cn(-c4ccc([C@H](C)NCC[C@@H](C)N)cc4)c(=O)nc3[nH]2)cc(C(F)(F)F)c1` [Compound 199], less than 16 µg/mL.
On to `C[C@H](N)CCCc1cc(-c2cc3cn(-c4ccc([C@H](C)NCC[C@@H](C)NC(=N)N)cc4)c(=O)nc3[nH]2)cc(C(F)(F)F)c1` [Compound 200], for which the MIC was less than 16 µg/mL.
For `C=CC[C@H](N)CCNCc1ccc(-n2cc3cc(-c4cc(CCC[C@H](C)N)cc(Cl)c4F)[nH]c3nc2=O)cc1` [Compound 201] the value was less than 16 µg/mL; for `C=CC[C@@H](CCNCc1ccc(-n2cc3cc(-c4cc(CCC[C@H](C)N)cc(Cl)c4F)[nH]c3nc2=O)cc1)NC(=N)N` [Compound 202], less than 16 µg/mL.
The value for `C[C@H](N)CCCc1cc(Cl)c(F)c(-c2cc3cn(-c4ccc(CNCC[C@H](CN)NC(=N)N)cc4)c(=O)nc3[nH]2)c1` [Compound 203] was less than 16 µg/mL.
In the case of `C[C@H](N)CCCc1cc(Cl)c(F)c(-c2cc3cn(-c4ccc(CNCC[C@@H]5CN=C(N)N5)cc4)c(=O)nc3[nH]2)c1` [Compound 204], the MIC is less than 16 µg/mL.
For `C[C@H](N)CCCc1cc(Cl)c(F)c(-c2cc3cn(-c4ccc([C@H](C)NCCCN(C)C(=N)N)cc4)c(=O)nc3[nH]2)c1` [Compound 205] the value was less than 16 µg/mL; for `C=CC[C@@H](N)CCNCc1ccc(-n2cc3cc(-c4cc(CCC[C@H](C)N)cc(Cl)c4F)[nH]c3nc2=O)cc1` [Compound 206], less than 16 µg/mL; for `C=CC[C@H](CCNCc1ccc(-n2cc3cc(-c4cc(CCC[C@H](C)N)cc(Cl)c4F)[nH]c3nc2=O)cc1)NC(=N)N` [Compound 207], less than 16 µg/mL.
The value for `CNCCCN[C@@H](C)c1ccc(-n2cc3cc(-c4cc(CCC[C@H](C)N)cc(Cl)c4F)[nH]c3nc2=O)cc1` [Compound 208] was less than 16 µg/mL.
Consider `C[C@H](N)CCCc1cc(Cl)c(F)c(-c2cc3cn(-c4ccc(CN[C@H](C)CCNC(=N)N)cc4)c(=O)nc3[nH]2)c1` [Compound 209], for which the minimal inhibitory concentration (MIC) was less than 16 µg/mL.
For `C[C@H](N)CCCc1cc(Cl)c(F)c(-c2cc3cn(-c4ccc(CN[C@H](C)CCN)cc4)c(=O)nc3[nH]2)c1` [Compound 210] the value was less than 16 µg/mL; for `C[C@H](N)CCCc1cc(-c2cc3cn(-c4ccc([C@H](C)NCCCN(C)C(=N)N)cc4)c(=O)nc3[nH]2)cc(C(F)(F)F)c1` [Compound 211], less than 16 µg/mL; for `C=CCN(CCCN[C@@H](C)c1ccc(-n2cc3cc(-c4cc(CCC[C@H](C)N)cc(Cl)c4F)[nH]c3nc2=O)cc1)C(=N)N` [Compound 212], less than 16 µg/mL.
For `C=CCNCCCN[C@@H](C)c1ccc(-n2cc3cc(-c4cc(CCC[C@H](C)N)cc(Cl)c4F)[nH]c3nc2=O)cc1` [Compound 213] the value was less than 16 µg/mL; for `C[C@H](N)CCCc1cc(-c2cc3cn(-c4ccc([C@H](C)NCCCNC(=N)N)cc4)c(=O)nc3[nH]2)c(F)c(C(F)(F)F)c1F` [Compound 214], less than 16 µg/mL; for `C=CCN(CCCN[C@@H](C)c1ccc(-n2cc3cc(-c4cc(CCC[C@H](C)N)cc(C(F)(F)F)c4)[nH]c3nc2=O)cc1)C(=N)N` [Compound 215], less than 16 µg/mL.
For `C=CCNCCCN[C@@H](C)c1ccc(-n2cc3cc(-c4cc(CCC[C@H](C)N)cc(C(F)(F)F)c4)[nH]c3nc2=O)cc1` [Compound 216] the value was less than 16 µg/mL; for `CCc1c(F)c(CCC[C@H](C)N)cc(-c2cc3cn(-c4ccc([C@H](C)NCCCN)cc4)c(=O)nc3[nH]2)c1F` [Compound 217], less than 16 µg/mL; for `CCc1c(F)c(CCC[C@H](C)N)cc(-c2cc3cn(-c4ccc([C@H](C)NCCCNC(=N)N)cc4)c(=O)nc3[nH]2)c1F` [Compound 218], less than 16 µg/mL.
In the case of `C[C@H](N)CCCc1cc(Cl)c(F)c(-c2cc3cn(-c4ccc([C@H](C)N[C@@H](C)CCNC(=N)N)cc4)c(=O)nc3[nH]2)c1` [Compound 219], the MIC is less than 16 µg/mL.
For `C[C@H](N)CCCc1cc(-c2cc3cn(-c4ccc([C@H](C)N[C@@H](C)CCNC(=N)N)cc4)c(=O)nc3[nH]2)cc(C(F)(F)F)c1` [Compound 220] the value was less than 16 µg/mL; for `C[C@H](N)CCCc1cc(Cl)c(F)c(-c2cc3cn(-c4ccc([C@H](C)NCC[C@H](C)N)cc4)c(=O)nc3[nH]2)c1` [Compound 221], less than 16 µg/mL; for `C[C@H](N)CCCc1cc(Cl)c(F)c(-c2cc3cn(-c4ccc([C@H](C)NCC[C@H](C)NC(=N)N)cc4)c(=O)nc3[nH]2)c1` [Compound 222], less than 16 µg/mL.
Regarding `C[C@H](N)CCCc1cc(OC(F)(F)F)c(F)c(-c2cc3cn(-c4ccc([C@H](C)NCC[C@H](C)N)cc4)c(=O)nc3[nH]2)c1` [Compound 223], the MIC is less than 16 µg/mL.
The value for `C[C@H](N)CCCc1cc(OC(F)(F)F)c(F)c(-c2cc3cn(-c4ccc([C@H](C)NCC[C@H](C)NC(=N)N)cc4)c(=O)nc3[nH]2)c1` [Compound 224] was less than 16 µg/mL; that for `C[C@H](N)CCCc1cc(Cl)c(F)c(-c2cc3cn(-c4ccc([C@H](C)N[C@H](C)CCNC(=N)N)cc4)c(=O)nc3[nH]2)c1` [Compound 225] was less than 16 µg/mL.
Regarding `C[C@H](N)CCCc1cc(-c2cc3cn(-c4ccc([C@H](C)N[C@H](C)CCNC(=N)N)cc4)c(=O)nc3[nH]2)cc(C(F)(F)F)c1` [Compound 226], the MIC is less than 16 µg/mL.
Take `CC[C@H](NCCCNC(=N)N)c1ccc(-n2cc3cc(-c4cc(CCC[C@H](C)N)cc(OC(F)(F)F)c4F)[nH]c3nc2=O)cc1` [Compound 227]: the MIC was less than 16 µg/mL.
As for `C[C@H](N)CCCc1cc(OC(F)(F)F)c(F)c(-c2cc3cn(-c4ccc(CN[C@H](C)CCNC(=N)N)cc4)c(=O)nc3[nH]2)c1` [Compound 228], the MIC is less than 16 µg/mL.
For `C[C@H](N)CCCc1cc(Cl)c(F)c(-c2cc3cn(-c4ccc(C[C@@H](CCCN)NC(=N)N)cc4)c(=O)nc3[nH]2)c1` [Compound 229] the value was less than 16 µg/mL; for `C[C@H](N)CCCc1cc(Cl)c(F)c(-c2cc3cn(-c4ccc(C[C@H](N)CCCNC(=N)N)cc4)c(=O)nc3[nH]2)c1` [Compound 230], less than 16 µg/mL.
For `C[C@H](N)CCCc1cc(OC(F)(F)F)c(F)c(-c2cc3cn(-c4ccc(C[C@H](N)CCCNC(=N)N)cc4)c(=O)nc3[nH]2)c1` [Compound 231] the value was less than 16 µg/mL; for `C[C@H](N)CCCc1cc(OC(F)(F)F)c(F)c(-c2cc3cn(-c4ccc([C@H](C)N[C@@H](C)CCNC(=N)N)cc4)c(=O)nc3[nH]2)c1` [Compound 232], less than 16 µg/mL.
Consider `C[C@H](N)CCCc1cc(OC(F)(F)F)c(F)c(-c2cc3cn(-c4ccc([C@H](C)N[C@H](C)CCNC(=N)N)cc4)c(=O)nc3[nH]2)c1` [Compound 233], for which the MIC is less than 16 µg/mL.

The values are drawn from patent US10815238B2, “Antimicrobial compounds and methods of making and using the same” (BIOVERSYS AG, priority 2013, dated 2020).
